These results are taken from patent US20120129843A1, “PYRIDYL-THIAZOLYL INHIBITORS OF PRO-MATRIX METALLOPROTEINASE ACTIVATION” (priority 2010, published 2012).

In test [1] the target is T1, full-length proMMP9(1-707) (SEQ ID NO:1), activation by catalytic MMP3 (Homo sapiens, UniProt P14780, R574P).
T1 construct: made in house; host or cells: HEK293 (proMMP9, secreted); E. coli (MMP3)
Kind of test: proMMP9/MMP3 P126 Activation Assay. Format: biochemical. Here is the method: proMMP9/MMP3 P126 Activation Assay
The reaction volume was 50 μL. […] Reactivity of residual MMP3 towards P-126 substrate was minimal under these conditions.

Test [2] has as its target T2, proMMP9(20-445;ΔFnII) (SEQ ID NO:6) (Homo sapiens, UniProt P14780, DEL216-390).
T2 construct: start methionine (N); made in house; host or cells: E. coli BL21(DE3) RIL
T2 sequence (P14780 with tags, fused parts or gaps DEL216-390): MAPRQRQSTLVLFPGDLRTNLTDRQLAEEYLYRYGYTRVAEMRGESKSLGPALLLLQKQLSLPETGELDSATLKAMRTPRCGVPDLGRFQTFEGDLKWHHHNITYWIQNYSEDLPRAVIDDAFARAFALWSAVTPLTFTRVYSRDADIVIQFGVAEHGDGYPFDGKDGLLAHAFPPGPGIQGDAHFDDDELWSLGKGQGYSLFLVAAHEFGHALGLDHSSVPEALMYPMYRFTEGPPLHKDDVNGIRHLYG
Description: ThermoFluor binding assay with proMMP9(20-445;ΔFnII). The method, then: The ThermoFluor® (TF) assay is a 384-well plate-based binding assay that measures thermal stability of proteins (Biomol Screen 2001, 6, 429-40; Biochemistry 2005, 44, 5258-66). The experiments were carried out using instruments available from Johnson & Johnson Pharmaceutical Research & Development, LLC. TF dye used in all experiments was […] (1,8-ANS) (Invitrogen: A-47).
Compounds were arranged in a pre-dispensed plate (Greiner Bio-one: 781280), wherein compounds were serially diluted in 100% DMSO across 11 columns within a series. Columns 12 and 24 were used as DMSO reference and contained no compound. For multiple compound concentration-response experiments, the compound aliquots ([…]) were robotically predispensed directly into black 384-well polypropylene PCR microplates (Abgene: TF-0384/k) using a Cartesian Hummingbird liquid handler (DigiLab, Holliston, Mass.). Following compound dispense, protein and dye solutions were added to achieve the final assay volume of 3 μL. The assay solutions were overlayed with 1 μL of silicone oil (Fluka, type DC 200: 85411) to prevent evaporation.
Assay plates were robotically loaded onto a thermostatically controlled PCR-type thermal block and then heated from 40 to 90° C. at a ramp-rate of 1° C./min for all experiments. Fluorescence was measured by continuous illumination with UV light (Hamamatsu LC6) supplied via fiber optics and filtered through a band-pass filter (380-400 nm; >60D cutoff). Fluorescence emission of the entire 384-well plate was detected by measuring light intensity using a CCD camera (Sensys, Roper Scientific) filtered to detect 500±25 nm, resulting in simultaneous and independent readings of all 384 wells. A single image with 20-sec exposure time was collected at each temperature, and the sum of the pixel intensity in a given area of the assay plate was recorded vs temperature and fit to standard equations to yield the Tm (J Biomol Screen 2001, 6, 429-40).
Thermodynamic parameters necessary for fitting compound binding for each proMMP were estimated by differential scanning calorimetry (DSC) and from ThermoFluor® data. The heat capacity of unfolding for each protein was estimated from the molecular weight and from ThermoFluor® dosing data.
ThermoFluor® with proMMP9(20-445;ΔFnII) (SEQ ID NO:6)
The protein sample preparations included a desalting buffer exchange step via a PD-10 gravity column (GE Healthcare). The desalting buffer exchange was performed prior to diluting the protein to the final assay concentration of 2.8 μM proMMP9(20-445;ΔFnII) (SEQ ID NO:6). The concentration of proMMP9(20-445;ΔFnII) (SEQ ID NO:6) was determined spectrophotometrically based on a calculated extinction coefficient of ε280=39880 M^−1cm^−1, a calculated molecular weight of 28.2 kDa, and calculated pI of 5.5. ThermoFluor® reference conditions were define as follows: 80 μg/mL (2.8 μM) proMMP9(20-445;ΔFnII) (SEQ ID NO:6), 50 μM 1,8-ANS, pH 7.0 Buffer (50 mM HEPES pH 7.0, 100 mM NaCl, 0.001% Tween-20, 2.5 mM MgCl2, 300 μM CaCl2). The thermodynamic parameters for proMMP9(20-445;ΔFnII) (SEQ ID NO:6) are as follows: Tm (° C.)=72 (+/−0.1), ΔUH(Tm) (cal mol^−1)=160000(+/−5000), ΔUS(Tm) (cal mol^−1 K^−1)=434, ΔUCp (cal mol^−1 K^−1)=2400.
(In general: Differential scanning fluorimetry follows unfolding on heating by fluorescence.)

Structures can show the parent of a compound that is named as a salt.

T1 sequence (P14780 20-707 R574P): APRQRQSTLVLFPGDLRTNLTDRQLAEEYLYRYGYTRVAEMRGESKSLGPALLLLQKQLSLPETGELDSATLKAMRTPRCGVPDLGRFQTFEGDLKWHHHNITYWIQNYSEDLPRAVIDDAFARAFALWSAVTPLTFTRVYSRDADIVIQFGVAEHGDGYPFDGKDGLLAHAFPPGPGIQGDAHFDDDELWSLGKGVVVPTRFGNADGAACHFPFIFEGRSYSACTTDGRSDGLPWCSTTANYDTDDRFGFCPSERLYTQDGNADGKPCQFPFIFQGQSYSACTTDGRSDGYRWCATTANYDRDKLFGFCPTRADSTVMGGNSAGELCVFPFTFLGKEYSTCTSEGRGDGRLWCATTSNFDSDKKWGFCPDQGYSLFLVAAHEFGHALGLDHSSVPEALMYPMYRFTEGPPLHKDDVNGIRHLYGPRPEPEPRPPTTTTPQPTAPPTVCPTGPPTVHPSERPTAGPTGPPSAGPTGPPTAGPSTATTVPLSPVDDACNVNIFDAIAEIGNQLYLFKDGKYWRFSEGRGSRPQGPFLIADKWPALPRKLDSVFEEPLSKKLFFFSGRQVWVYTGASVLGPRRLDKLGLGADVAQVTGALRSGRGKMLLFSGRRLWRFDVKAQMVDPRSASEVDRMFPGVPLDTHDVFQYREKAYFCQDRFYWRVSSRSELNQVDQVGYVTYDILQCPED

As a reminder, the IC50 is the concentration that gives 50% inhibition. Low readings indicate greater potency in that assay, high ones weaker potency in that assay. What is called Kd is the concentration at which binding is half-saturated. Low values mean tighter binding, high ones weaker binding. Turning to `COCCCN(C)c1ccc(-c2csc(Nc3cc(S(N)(=O)=O)ccc3OC(C)C)n2)cn1` [Example 92, 4-Isopropoxy-3-((4-(6-((3-methoxypropyl)(methyl)amino)pyridin-3-yl)thiazol-2-yl)amino)benzenesulfonamide.TFA], it took 230 nM to reach half-maximal inhibition in test [1] (IC50). Also, in test [2], binding was put at a Kd of 450 nM.

For the compound `CC(C)Oc1ccc(S(N)(=O)=O)cc1Nc1nc(-c2ccc(N3CCN(CCC(F)(F)F)CC3)nc2)cs1` [Example 66, 4-Isopropoxy-3-((4-(6-(4-(3,3,3-trifluoropropyl)piperazin-1-yl)pyridin-3-yl)thiazol-2-yl)amino)benzenesulfonamide.TFA], the IC50 in test [1] was > 20000 nM. The same compound gave a Kd in test [2] of 310 nM.

Consider `CC(C)Oc1ccc(S(N)(=O)=O)cc1Nc1nc(-c2ccc(N3CCC(O)CC3)nc2)cs1` [Example 70, 3-((4-(6-(4-Hydroxypiperidin-1-yl)pyridin-3-yl)thiazol-2-yl)amino)-4-isopropoxybenzenesulfonamide.TFA], for which, in test [1], the IC50 was 340 nM. This compound also came in with a Kd in test [2] of 250 nM.

On to `CC(C)Oc1ccc(S(N)(=O)=O)cc1Nc1nc(-c2ccc(N3CCN(S(C)(=O)=O)CC3)nc2)cs1` [Example 83, 4-Isopropoxy-3-((4-(6-(4-(methylsulfonyl)piperazin-1-yl)pyridin-3-yl)thiazol-2-yl)amino)benzenesulfonamide.TFA], for which, in test [1], the half-inhibitory concentration (IC50) worked out at 140 nM. In test [2], this compound returned an equilibrium dissociation constant (Kd) of 310 nM.

With `CC(C)Oc1ccc(S(N)(=O)=O)cc1Nc1nc(-c2ccnc(Cl)c2)cs1` [Intermediate 9, 3-[4-(2-Chloro-pyridin-4-yl)-thiazol-2-ylamino]-4-isopropoxy-benzenesulfonamide.TFA], the Kd in test [2] turned out to be 96000 nM. This lies in the double-digit micromolar range.

`CC(=O)N1CCN(c2ccc(-c3csc(Nc4cc(S(N)(=O)=O)ccc4OC(C)C)n3)cn2)CC1` [Example 65, 3-((4-(6-(4-Acetylpiperazin-1-yl)pyridin-3-yl)thiazol-2-yl)amino)-4-isopropoxybenzenesulfonamide.TFA] registered an IC50 in test [1] of 210 nM. This compound registered a Kd in test [2] of 69 nM.

Take `CC1CN(c2ccc(-c3csc(Nc4cc(S(N)(=O)=O)ccc4OC(C)C)n3)cn2)CC(C)N1` (stereo not drawn) [Example 67, 3-((4-(6-(3,5-Dimethylpiperazin-1-yl)pyridin-3-yl)thiazol-2-yl)amino)-4-isopropoxybenzenesulfonamide.TFA]: half-maximal inhibition in test [1] (IC50) was put at 130 nM. Also, the dissociation constant Kd in test [2] was found to be 71 nM.

As to `CC1CCN(c2ccc(-c3csc(Nc4cc(S(N)(=O)=O)ccc4OC(C)C)n3)cn2)CC1` [Example 77, 4-Isopropoxy-3-((4-(6-(4-methylpiperidin-1-yl)pyridin-3-yl)thiazol-2-yl)amino)benzenesulfonamide.TFA], in test [1], the concentration for half-maximal inhibition (IC50) was > 20000 nM. This compound also showed a dissociation constant Kd in test [2] of 1900 nM.

Consider `COCCN(C)c1ccc(-c2csc(Nc3cc(S(N)(=O)=O)ccc3OC(C)C)n2)cn1` [Example 74, 4-Isopropoxy-3-((4-(6-((2-methoxyethyl)(methyl)amino)pyridin-3-yl)thiazol-2-yl)amino)benzenesulfonamide.TFA], for which half-maximal inhibition in test [1] (IC50) required 160 nM. Binding in test [2] was characterised by a dissociation constant (Kd) of 170 nM.

For `CC(C)Oc1ccc(S(N)(=O)=O)cc1Nc1nc(-c2ccc(N(C)CCO)nc2)cs1` [Example 75, 3-((4-(6-((2-Hydroxyethyl)(methyl)amino)pyridin-3-yl)thiazol-2-yl)amino)-4-isopropoxybenzenesulfonamide.TFA], the IC50 in test [1] turned out to be 110 nM. In test [2], this compound had a Kd of 280 nM.

`CC(C)Oc1ccc(S(N)(=O)=O)cc1Nc1nc(-c2ccc(N3C[C@@H](C)N[C@@H](C)C3)nc2)cs1` [Example 68, 3-((4-(6-(cis-3,5-Dimethylpiperazin-1-yl)pyridin-3-yl)thiazol-2-yl)amino)-4-isopropoxybenzenesulfonamide.TFA] displayed an IC50 in test [1] of 130 nM. Moreover, the Kd in test [2] is 71 nM.

For `CC(C)Oc1ccc(S(N)(=O)=O)cc1Nc1nc(-c2ccc(C(=O)NCC3CCN(C)CC3)nc2)cs1` [Example 95, 5-(2-((2-Isopropoxy-5-sulfamoylphenyl)amino)thiazol-4-yl)-N-((1-methylpiperidin-4-yl)methyl)picolinamide.TFA], the IC50 in test [1] worked out at 310 nM.

Consider `CC(C)Oc1ccc(S(N)(=O)=O)cc1Nc1nc(-c2ccc(C(=O)NC3CCOCC3)nc2)cs1` [Example 96, 5-(2-((2-Isopropoxy-5-sulfamoylphenyl)amino)thiazol-4-yl)-N-(tetrahydro-2H-pyran-4-yl)picolinamide.TFA], for which the IC50 in test [1] came to 590 nM. For the same compound, the Kd in test [2] worked out at 1900 nM.

For the compound `COC1CCN(c2ccc(-c3csc(Nc4cc(S(N)(=O)=O)ccc4OC(C)C)n3)cn2)CC1` [Example 78, 4-Isopropoxy-3-((4-(6-(4-methoxypiperidin-1-yl)pyridin-3-yl)thiazol-2-yl)amino)benzenesulfonamide.TFA], the IC50 in test [1] was ~300 nM. Besides, the Kd in test [2] is 340 nM.

For `CC(C)Oc1ccc(S(N)(=O)=O)cc1Nc1nc(-c2ccc(N3CCN(C4CC4)CC3)nc2)cs1` [Example 61, 3-((4-(6-(4-Cyclopropylpiperazin-1-yl)pyridin-3-yl)thiazol-2-yl)amino)-4-isopropoxybenzenesulfonamide.TFA], the IC50 in test [1] came out at 300 nM.

For `CC(C)Oc1ccc(S(N)(=O)=O)cc1Nc1nc(-c2ccc(C3CCNCC3)nc2)cs1` [Example 81, 4-Isopropoxy-3-((4-(6-(piperidin-4-yl)pyridin-3-yl)thiazol-2-yl)amino)benzenesulfonamide.TFA], in test [1], the IC50 worked out at 130 nM. The Kd in test [2] was found to be 130 nM.

In test [1], `CC(C)Oc1ccc(S(N)(=O)=O)cc1Nc1nc(-c2ccc(N3CCN(CC4CC4)CC3)nc2)cs1` [Example 71, 3-((4-(6-(4-(Cyclopropylmethyl)piperazin-1-yl)pyridin-3-yl)thiazol-2-yl)amino)-4-isopropoxybenzenesulfonamide.TFA] gave an IC50 of 170 nM. In addition, the affinity in test [2], expressed as Kd, was 75 nM.

For `COCCNC(=O)c1ccc(-c2csc(Nc3cc(S(N)(=O)=O)ccc3OC(C)C)n2)cn1` [Example 90, 5-(2-((2-Isopropoxy-5-sulfamoylphenyl)amino)thiazol-4-yl)-N-(2-methoxyethyl)picolinamide.TFA], the IC50 in test [1] came to 1700 nM. Also, in test [2], the Kd amounted to 970 nM.

In the case of `CC(C)Oc1ccc(S(N)(=O)=O)cc1Nc1nc(-c2ccc(C(=O)NCC3CCOCC3)nc2)cs1` [Example 91, 5-(2-((2-Isopropoxy-5-sulfamoylphenyl)amino)thiazol-4-yl)-N-((tetrahydro-2H-pyran-4-yl)methyl)picolinamide.TFA], in test [1], the IC50 was found to be 640 nM. The dissociation constant Kd in test [2] amounted to 2400 nM.

For the compound `CCOC(=O)CCNC(=O)c1ccc(-c2csc(Nc3cc(S(N)(=O)=O)ccc3OC(C)C)n2)cn1` [Example 87, Ethyl 3-(5-(2-((2-isopropoxy-5-sulfamoylphenyl)amino)thiazol-4-yl)picolinamido)propanoate.TFA], in test [1], the IC50 is ~2000 nM. This compound also showed a Kd in test [2] of 360 nM.

Take `CC(C)Oc1ccc(S(N)(=O)=O)cc1Nc1nc(-c2ccc(C(=O)NC3CCCN(C)C3)nc2)cs1` (stereo not drawn) [Example 89, 5-(2-((2-Isopropoxy-5-sulfamoylphenyl)amino)thiazol-4-yl)-N-(1-methylpiperidin-3-yl)picolinamide.TFA]: the IC50 in test [1] worked out at 350 nM. In test [2], this compound had a Kd of 360 nM.
